Eleven molecules from patent US8216973B2, “2-[(1H-pyrazole-4-ylmethyl)-sulfonyl]-oxazole-derivative, 2-[(1H-pyrazole-4-ylmethyl)-sulfanyl]-oxazole-derivatives, and chiral 2-[(1H-pyrazole-4-ymethyl)sulfinyl]oxazole derivatives, methods for the production thereof, and use thereof as herbicides and plant growth regulators” (Bayer Cropscience AG, priority 2008, dated 2012) can be followed below.

In experiment [1] the test system is harmful plants such as Avena fatua, Stellaria media, Echinochloa crus galli, Lolium multiflorum, Setaria viridis, Amaranthus retroflexus, Veronica persica …. Nature of the experiment: Pre-emergence herbicidal effect, greenhouse pot test. The format is in vivo, monocotyledonous or dicotyledonous weed plants. The conditions noted are these: pre-emergence method, application rate of 0.32 kg and less of active substance per hectare, scored visually after about 3 weeks. An excerpt: 1. Pre-Emergence Herbicidal Effect and Crop Plant Compatibility
Seeds of monocotyledonous or dicotyledonous weed plants or crop plants are placed in sandy loam in wood-fiber pots and covered with soil. The compounds according to the invention, formulated in the form of wettable powders (WP), are then applied as aqueous suspension at a water application rate of 600 l/ha (converted) with the addition of 0.2% of wetting agent to the surface of the covering soil.
After the treatment, the pots are placed in a greenhouse and kept under good growth conditions for the test plants. After about 3 weeks, the effect of the preparations is scored visually in comparison with untreated controls (herbicidal effect in percent (%): 100% activity=the plants have died, 0% activity=like control plants).

Experiment [2] has as its system harmful plants such as Echinochloa crus galli, Lolium multiflorum, and Setaria viridis. Kind of experiment: Post-emergence herbicidal effect, greenhouse pot test. It is filed as in vivo, monocotyledonous and dicotyledonous weed plants. The conditions noted are these: post-emergence method, application rate of 0.32 kg and less of active substance per hectare, rated visually after about 3 weeks. Here is the method: 2. Post-Emergence Herbicidal Effect and Crop Plant Compatibility
Seeds of monocotyledonous and dicotyledonous weed and crop plants are placed in sandy loam in wood-fiber pots, covered with soil and cultivated in a greenhouse under good growth conditions. 2 to 3 weeks after sowing, the test plants are treated at the one-leaf stage. The compounds according to the invention, formulated in the form of wettable powders (WP), are then sprayed as aqueous suspension at a water application rate of 600 l/ha (converted) with the addition of 0.2% of wetting agent onto the green parts of the plants. After the test plants have been kept in the greenhouse under optimum growth conditions for about 3 weeks, the activity of the preparations is rated visually in comparison to untreated controls (herbicidal activity in percent (%): 100% activity=the plants have died, 0% activity=like control plants).

SMILES strings stand for the structures.

Regarding `Cn1nc(C(F)(F)F)c(C[S+]([O-])c2ncco2)c1OC(F)F` (racemic) [compound 50, 2-({[5-(Difluoromethoxy)-1-methyl-3-(trifluoromethyl)-1H-pyrazol-4-yl]methyl}sulfinyl)-1,3-oxazole], the “herbicidal activity against harmful plants” value (from here on “herbicidal activity”) in experiment [1] and in experiment [2] was “very good herbicidal activity” throughout.

For `Cn1nc(C(F)(F)F)c(C[S+]([O-])c2ncco2)c1Cl` (centres unmarked) [Compound No. 35, 2-({[5-(Chloro)-1-methyl-3-(trifluoromethyl)-1H-pyrazol-4-yl]methyl}sulfinyl)-1,3-oxazole], the “herbicidal activity” value in experiment [1] and in experiment [2] was “very good herbicidal activity” in each case. Consider `Cn1nc(C(F)(F)F)c(C[S+]([O-])c2ncco2)c1C(F)(F)F` (centres unmarked) [Compound No. 230, 2-({[1-Methyl-3,5-bis(trifluoromethyl)-1H-pyrazol-4-yl]methyl}sulfinyl)-1,3-oxazole], for which the “herbicidal activity” value in experiment [1] and in experiment [2] was “very good herbicidal activity” each time. For the molecule `Cn1nc(C(F)(F)F)c(C[S+]([O-])c2ncc(Cl)o2)c1OC(F)F` (centres unmarked) [Compound No. 542, 5-Chloro-2-({[5-(difluoromethoxy)-1-methyl-3-(trifluoromethyl)-1H-pyrazol-4-yl]methyl}sulfinyl)-1,3-oxazole], the “herbicidal activity” value in experiment [1] and in experiment [2] was “very good herbicidal activity” throughout. Regarding `Cn1nc(C(F)(F)F)c(C[S+]([O-])c2ncc(Br)o2)c1OC(F)F` (centres unmarked) [Compound No. 788, 5-Bromo-2-({[5-(difluoromethoxy)-1-methyl-3-(trifluoromethyl)-1H-pyrazol-4-yl]methyl}sulfinyl)-1,3-oxazole], in experiment [1], the “herbicidal activity” value is on record as “very good herbicidal activity”.

As for `Cn1nc(C(F)(F)F)c(CS(=O)(=O)c2ncc(Br)o2)c1OC(F)F` [Compound No. 789, 5-Bromo-2-({[5-(difluoromethoxy)-1-methyl-3-(trifluoromethyl)-1H-pyrazol-4-yl]methyl}sulfonyl)-1,3-oxazole], the “herbicidal activity” value in experiment [1] is listed as “very good herbicidal activity”. As for `Cn1nc(C(F)(F)F)c(C[S+]([O-])c2ncc(I)o2)c1OC(F)F` (centres unmarked) [Compound No. 1034, 5-Iodo-2-({[5-(difluoromethoxy)-1-methyl-3-(trifluoromethyl)-1H-pyrazol-4-yl]methyl}sulfinyl)-1,3-oxazole], in experiment [1], the “herbicidal activity” value was “very good herbicidal activity”. On the same count and under the same terms, then `Cn1nc(C(F)(F)F)c(C[S@+]([O-])c2ncc(Cl)o2)c1OC(F)F` [Compound No. 2449], with “very good herbicidal activity”; and `Cn1nc(C(F)(F)F)c(C[S@+]([O-])c2ncc(Br)o2)c1OC(F)F` [Compound No. 2531], with “very good herbicidal activity”. With `Cn1nc(C(F)(F)F)c(CS(=O)(=O)c2ncco2)c1OC(F)F` [compound 51, 2-({[5-(Difluoromethoxy)-1-methyl-3-(trifluoromethyl)-1H-pyrazol-4-yl]methyl}sulfonyl)-1,3-oxazole], the “herbicidal activity” value in experiment [1] and in experiment [2] was “very good herbicidal activity” in each case. With `Cn1nc(C(F)(F)F)c(C[S@+]([O-])c2ncco2)c1OC(F)F` [compound 2285, 2-[(S)-{[5-(Difluoromethoxy)-1-methyl-3-(trifluoromethyl)-1H-pyrazol-4-yl]methyl}sulfinyl]-1,3-oxazole], the “herbicidal activity” value in experiment [1] and in experiment [2] was “very good herbicidal activity” each time.
